Legend:
[1] = tested on: Japanese medaka (Oryzias latipes); assay: Fish short-term reproduction assay (FSTRA, OECD TG229), 21-day flow-through exposure; conditions: for Fertility rate (%) / Mortality (%) Female / Mortality (%) Male / Number of fertilized eggs / Number of total eggs / SSC Female / SSC Male / VTG (ng/mg of liver) Female / VTG (ng/mg of liver) Male: 21 days; for GSI Female / GSI Male / HSI Female / HSI Male / Length Female / Length Male / Weight Female / Weight Male: at completion of exposure
Experimental: The experimental studies on the FSTRA for the 16 chemicals were conducted in two laboratories in Japan, the National Institute for Environmental Studies (NIES, Lab‐1) and the Institute of Environmental Ecology, IDEA Consultants Inc. (Lab‐2), in accordance with OECD TG229 (OECD, [2012a]) (Table 1).
The NIES‐R strain of Japanese medaka (O. latipes), one of the orange‐red varieties, was used in all the 16 chemical studies. For the studies, healthy and mature male and female medakas at 16 ± 2 weeks old were selected from a single‐stock population, which were bred within the test facilities. The test fish were maintained in conditions similar to the assay for at least 7 days, and spawning status was checked during the acclimation period. On the day the chemical exposure commenced, to ensure balanced distribution of test fish between the treatment groups for the reproductive status of the fish, the replicate vessels (fish tanks), with each containing three male and female medaka, were distributed to each treatment and control group, for example, by a randomized block design based on the number of fertilized eggs laid in the last 5–7 days during the acclimation, in each assay.
The water solubility of the test chemical was also taken into consideration when deciding the highest test concentration. To set the lower concentrations, a spacing factor ranging between two and five was used. All assays included a dilution water control (DWC).
Test solutions at the selected concentrations were prepared by diluting a stock solution, which was prepared by an adequate method depending on the physicochemical properties of the test chemicals, for example, by simply mixing the test chemical in dilution water by stirring and/or sonicating for an appropriate time or by using a solid–liquid saturator. In the two laboratories, flow‐through exposure systems, in which a series of test solutions at the target concentrations can be continuously prepared and delivered to test vessels at controlled flow rates (Haselman et al., [2016]; Watanabe et al., [2017]), were used for the exposure experiments.
In the FSTRA, three mature adult males and females in a test vessel were exposed together to the test chemicals in flow‐through condition for 3 weeks. In all the assays, each treatment group, including the DWC group, contained four replicate tanks. During the exposure period, the fish were fed a sufficient amount of live brine shrimp nauplii (newly hatched Artemia sp.) for daily spawning ad libitum. Fecal material in the tanks was appropriately removed by siphoning after feeding. Water temperature of test solutions was recorded for at least one vessel in each treatment and control group every day and for all vessels at least once a week. Furthermore, dissolved oxygen and pH of test solutions were measured for all test vessels at least once a week. Mortality and abnormal behavior and appearance in the fish exposed to test chemicals were daily observed, and any fish that died were removed from the tank as soon as possible. To assess the reproductive status, all eggs females spawned were collected every day. At the completion of the chemical exposure, surviving fish in each tank were sampled.
The eggs females released on the bottom of the tank were collected by siphoning, and the egg clutches still on female abdomen were carefully picked from the body of the females captured using a small net. All the eggs collected were microscopically observed and separately counted for fertilized and unfertilized.

[2] = tested on: Japanese medaka; conditions: long-term exposure, MMT; ref Flynn et al. (2017); cited from earlier work

In the case of C[C@]12CC[C@@H]3c4ccc(O)cc4CC[C@H]3[C@@H]1CC[C@@H]2O [E2, 17β‐Estradiol], the “LOEC on VTG induction in male (in molarity)” value ([1]; hepatic VTG, 21-day exposure) was 81 pM, the “LOEC for VTG induction in males” value ([1]; hepatic VTG, 21-day exposure, measured conc.) was 22.1 ng/L and the “LOEC on male VTG induction: times smaller than the LOEC for CMP” value ([1]; in vivo) was “more than 8,000 times”. For the same compound, the “effect on male GSI, in words” value ([1]; in vivo) was “significant decreasing”, the “Fertility rate (%)” value ([1]; measured conc. 22.1 ng/L) was 90% and the “Mortality (%) Female” value ([1]; measured conc. 22.1 ng/L) was 0%. The “Mortality (%) Male” value ([1]; measured conc. 22.1 ng/L) was 0%, the “Number of fertilized eggs” value ([1]; measured conc. 22.1 ng/L) was 18 and the “Number of total eggs” value ([1]; measured conc. 22.1 ng/L) was 20 ± 2.9 /female/day. The “SSC Female” value ([1]; measured conc. 22.1 ng/L) was 0 ± 0, the “SSC Male” value ([1]; measured conc. 22.1 ng/L) was 109 ± 10 and the “VTG (ng/mg of liver) Female” value ([1]; measured conc. 22.1 ng/L) was 3,420 ± 991 ng/mg of liver. For the same compound, the “VTG (ng/mg of liver) Male” value ([1]; measured conc. 22.1 ng/L) was 424 ± 379 ng/mg of liver, the “GSI Female” value ([1]; measured conc. 22.1 ng/L) was 10.3% and the “GSI Male” value ([1]; measured conc. 22.1 ng/L) was 0.82%. The “HSI Female” value ([1]; measured conc. 22.1 ng/L) was 4.4%, the “HSI Male” value ([1]; measured conc. 22.1 ng/L) was 2.0% and the “Length Female” value ([1]; measured conc. 22.1 ng/L) was 36.8 mm. For the same compound, the “Length Male” value ([1]; measured conc. 22.1 ng/L) was 36.4 mm, the “Weight Female” value ([1]; measured conc. 22.1 ng/L) was 573 mg and the “Weight Male” value ([1]; measured conc. 22.1 ng/L) was 507 mg. For the same compound, the “Fertility rate (%)” value ([1]; measured conc. 115 ng/L) was 95%, the “Mortality (%) Female” value ([1]; measured conc. 115 ng/L) was 8% and the “Mortality (%) Male” value ([1]; measured conc. 115 ng/L) was 8%. For the same compound, the “Number of fertilized eggs” value ([1]; measured conc. 115 ng/L) was 21, the “Number of total eggs” value ([1]; measured conc. 115 ng/L) was 22 ± 1.5 /female/day and the “SSC Female” value ([1]; measured conc. 115 ng/L) was 0 ± 0. The “SSC Male” value ([1]; measured conc. 115 ng/L) was 112 ± 10, the “VTG (ng/mg of liver) Female” value ([1]; measured conc. 115 ng/L) was 5,500 ± 1,370 ng/mg of liver and the “VTG (ng/mg of liver) Male” value ([1]; measured conc. 115 ng/L) was 13,400 ± 1900 ng/mg of liver. For the same compound, the “GSI Female” value ([1]; measured conc. 115 ng/L) was 11.4%, the “GSI Male” value ([1]; measured conc. 115 ng/L) was 0.67% and the “HSI Female” value ([1]; measured conc. 115 ng/L) was 4.3%. For the same compound, the “HSI Male” value ([1]; measured conc. 115 ng/L) was 2.5%, the “Length Female” value ([1]; measured conc. 115 ng/L) was 35.6 mm and the “Length Male” value ([1]; measured conc. 115 ng/L) was 35.8 mm. For the same compound, the “Weight Female” value ([1]; measured conc. 115 ng/L) was 517 mg, the “Weight Male” value ([1]; measured conc. 115 ng/L) was 512 mg and the “Fertility rate (%)” value ([1]; measured conc. 553 ng/L) was 85%. The “Mortality (%) Female” value ([1]; measured conc. 553 ng/L) was 17%, the “Mortality (%) Male” value ([1]; measured conc. 553 ng/L) was 8% and the “Number of fertilized eggs” value ([1]; measured conc. 553 ng/L) was 9.4. The “Number of total eggs” value ([1]; measured conc. 553 ng/L) was 13 ± 1.9 /female/day, the “SSC Female” value ([1]; measured conc. 553 ng/L) was 0 ± 0 and the “SSC Male” value ([1]; measured conc. 553 ng/L) was 97 ± 14. For the same compound, the “VTG (ng/mg of liver) Female” value ([1]; measured conc. 553 ng/L) was 18,900 ± 5,910 ng/mg of liver, the “VTG (ng/mg of liver) Male” value ([1]; measured conc. 553 ng/L) was 19,900 ± 3,570 ng/mg of liver and the “GSI Female” value ([1]; measured conc. 553 ng/L) was 11.2%. The “GSI Male” value ([1]; measured conc. 553 ng/L) was 0.31%, the “HSI Female” value ([1]; measured conc. 553 ng/L) was 4.4% and the “HSI Male” value ([1]; measured conc. 553 ng/L) was 3.2%. The “Length Female” value ([1]; measured conc. 553 ng/L) was 35.0 mm, the “Length Male” value ([1]; measured conc. 553 ng/L) was 35.0 mm and the “Weight Female” value ([1]; measured conc. 553 ng/L) was 512 mg. The “Weight Male” value ([1]; measured conc. 553 ng/L) was 488 mg, the “effect on fecundity (number of total eggs), in words” value ([1]; within the test concentrations, 21-day exposure) was “significant decrease” and the “LOEC on male VTG induction” value [2] was 28 ng/L.
